Assay results published in ChEMBL document CHEMBL3091370, “3,5-bis(benzylidene)-4-piperidones and related N-acyl analogs: a novel cluster of antimalarials targeting the liver stage of Plasmodium falciparum” (Bioorg Med Chem, 2013).
≈ marks a conversion by molar mass, not a printed value.

Legend:
Plasmodium berghei [1] = assay: Ratio of mefloquine IC50 to compound IC50 for liver stage Plasmodium berghei ANKA sporozoites infected in human HepG2 cells; format: functional
Plasmodium berghei [2] = assay: Ratio of chloroquine IC50 to compound IC50 for liver stage Plasmodium berghei ANKA sporozoites infected in human HepG2 cells; format: functional
[3] = Efflux ratio of apparent permeability from basolateral to apical side to apical to basolateral side in MDCK cells; format: ADME, cell-based, Canis lupus familiaris; details: dog
[4] = Apparent permeability from basolateral to apical side in MDCK cells at 10 uM after 1 hr by LC/MS analysis; format: ADME, cell-based, Canis lupus familiaris; details: dog
[5] = Half life in mouse plasma at 1 mM by LC/MS analysis; format: ADME, cell-free
[6] = Apparent permeability from apical to basolateral side in MDCK cells at 10 uM after 1 hr by LC/MS analysis; format: ADME, cell-based, Canis lupus familiaris; details: dog
[7] = Half life in human plasma at 1 mM by LC/MS analysis; format: ADME, cell-free
HepG2 = assay: Cytotoxicity against human HepG2 cells after 48 hrs by MTT assay; format: cell-based; details: HepG2, 48 h
Plasmodium berghei [8] = assay: Antimalarial activity against liver stage Plasmodium berghei ANKA sporozoites infected in human HepG2 cells after 48 hrs by luciferase reporter gene assay; format: functional, organism-based; details: HepG2, 48 h
Plasmodium falciparum [9] = assay: Ratio of IC50 for drug-resistant Plasmodium falciparum C235 to IC50 for drug-sensitive Plasmodium falciparum D6; format: functional
Plasmodium falciparum [10] = assay: Antimalarial activity against drug-resistant Plasmodium falciparum C235 after 72 hrs by SYBR green I staining-based fluorescence assay; format: functional, organism-based; details: C235, 72 h
Plasmodium falciparum [11] = assay: Antimalarial activity against drug-sensitive Plasmodium falciparum D6 after 72 hrs by SYBR green I staining-based fluorescence assay; format: functional, organism-based; details: D6, 72 h

| Structure (SMILES) | Ratio IC50 (Plasmodium berghei [1]) | Ratio IC50 (Plasmodium berghei [2]) | efflux ratio [3] | Papp B→A at 1 h, 10 µM [4] | half-life [5] | Papp A→B at 1 h, 10 µM [6] | half-life [7] | IC50 (HepG2) | IC50 (Plasmodium berghei [8]) | Ratio IC50 (Plasmodium falciparum [9]) | IC50 (Plasmodium falciparum [10]) | IC50 (Plasmodium falciparum [11]) |
| --- | --- | --- | --- | --- | --- | --- | --- | --- | --- | --- | --- | --- |
| O=C1/C(=C/c2ccccc2)CNC/C1=C\c1ccccc1 | >21 | >21 | 0.02 | 0.1 ×10⁻⁶ cm/s | 19.5 min | 5.74 ×10⁻⁶ cm/s | 11.8 min | > 2 µg/mL | 0.0935 µg/mL (≈ 0.34 µM) | 1.17 | 0.162 µg/mL (≈ 0.588 µM) | 0.139 µg/mL (≈ 0.505 µM) |
| Cc1ccc(/C=C2\CNC/C(=C\c3ccc(C)cc3)C2=O)cc1 |  |  |  |  | 14.6 min |  | 17.2 min | > 2 µg/mL | 0.159 µg/mL (≈ 0.524 µM) | 1.15 | 0.285 µg/mL (≈ 0.939 µM) | 0.249 µg/mL (≈ 0.821 µM) |
| O=C1/C(=C/c2ccc(Cl)cc2)CNC/C1=C\c1ccc(Cl)cc1 |  |  |  |  | > 60 min |  | > 60 min | > 2 µg/mL | 0.597 µg/mL (≈ 1.73 µM) | 1.24 | 0.128 µg/mL (≈ 0.372 µM) | 0.103 µg/mL (≈ 0.299 µM) |
| O=C1/C(=C/c2ccc([N+](=O)[O-])cc2)CNC/C1=C\c1ccc([N+](=O)[O-])cc1 |  |  | 0.01 |  | 22.5 min | 0.28 ×10⁻⁶ cm/s | > 60 min | > 2 µg/mL | 0.356 µg/mL (≈ 0.974 µM) | 1.1 | 0.0412 µg/mL (≈ 0.113 µM) | 0.0375 µg/mL (≈ 0.103 µM) |
| Cc1ccc(/C=C2\CN(C(=O)c3ccc(OCCN4CCOCC4)cc3)C/C(=C\c3ccc(C)cc3)C2=O)cc1.Cl |  |  |  |  |  |  |  |  |  | >2.36 | > 2 µg/mL | 0.846 µg/mL |
| Cl.O=C1/C(=C/c2ccc(Cl)cc2)CN(C(=O)c2ccc(OCCN3CCCCC3)cc2)C/C1=C\c1ccc(Cl)cc1 |  |  |  |  |  |  |  |  |  | >1.06 | > 2 µg/mL | > 2 µg/mL |
| CN(C)CCOc1ccc(C(=O)N2C/C(=C\c3ccc(Cl)cc3)C(=O)/C(=C/c3ccc(Cl)cc3)C2)cc1.Cl |  |  |  |  |  |  |  |  |  | 1.14 | 0.565 µg/mL | 0.497 µg/mL |
| CCN(CC)CCOc1ccc(C(=O)N2C/C(=C\c3ccccc3)C(=O)/C(=C/c3ccccc3)C2)cc1.Cl |  |  |  |  |  |  |  | > 2 µg/mL | 0.383 µg/mL | 0.76 | 0.311 µg/mL | 0.412 µg/mL |
| Cl.O=C1/C(=C/c2ccc([N+](=O)[O-])cc2)CN(C(=O)c2ccc(OCCN3CCOCC3)cc2)C/C1=C\c1ccc([N+](=O)[O-])cc1 |  |  |  |  |  |  |  | > 2 µg/mL | 0.357 µg/mL | 1.22 | 0.53 µg/mL | 0.433 µg/mL |
| Cl.O=C1/C(=C/c2ccccc2)CN(C(=O)c2ccc(OCCN3CCOCC3)cc2)C/C1=C\c1ccccc1 |  |  |  |  |  |  |  |  |  | >1.41 | > 2 µg/mL | 1.42 µg/mL |
| CCN(CC)CCOc1ccc(C(=O)N2C/C(=C\c3ccc(C)cc3)C(=O)/C(=C/c3ccc(C)cc3)C2)cc1.Cl |  |  |  |  |  |  |  | > 2 µg/mL | 0.483 µg/mL | 1.03 | 0.555 µg/mL | 0.536 µg/mL |
| Cc1ccc(/C=C2\CN(C(=O)c3ccc(OCCN4CCCCC4)cc3)C/C(=C\c3ccc(C)cc3)C2=O)cc1.Cl |  |  |  |  |  |  |  |  |  | 1.05 | 0.713 µg/mL | 0.682 µg/mL |
| CCN(CC)CCOc1ccc(C(=O)N2C/C(=C\c3ccc([N+](=O)[O-])cc3)C(=O)/C(=C/c3ccc([N+](=O)[O-])cc3)C2)cc1.Cl |  |  |  |  |  |  |  | > 2 µg/mL | 0.186 µg/mL | 0.72 | 0.146 µg/mL | 0.202 µg/mL |
| CN(C)CCOc1ccc(C(=O)N2C/C(=C\c3ccc([N+](=O)[O-])cc3)C(=O)/C(=C/c3ccc([N+](=O)[O-])cc3)C2)cc1.Cl |  |  |  |  |  |  |  | > 2 µg/mL | 0.31 µg/mL | 0.88 | 0.372 µg/mL | 0.424 µg/mL |
| Cl.O=C1/C(=C/c2ccc([N+](=O)[O-])cc2)CN(C(=O)c2ccc(OCCN3CCCCC3)cc2)C/C1=C\c1ccc([N+](=O)[O-])cc1 |  |  |  |  |  |  |  | > 2 µg/mL | 0.165 µg/mL | 1.15 | 0.288 µg/mL | 0.25 µg/mL |
| Cl.O=C1/C(=C/c2ccccc2)CN(C(=O)c2ccc(OCCN3CCCCC3)cc2)C/C1=C\c1ccccc1 |  |  |  |  |  |  |  |  |  | 0.93 | 0.74 µg/mL | 0.794 µg/mL |
| CN(C)CCOc1ccc(C(=O)N2C/C(=C\c3ccccc3)C(=O)/C(=C/c3ccccc3)C2)cc1.Cl |  |  |  |  |  |  |  |  |  | >1.14 | > 2 µg/mL | 1.75 µg/mL |
| CCN(CC)CCOc1ccc(C(=O)N2C/C(=C\c3ccc(Cl)cc3)C(=O)/C(=C/c3ccc(Cl)cc3)C2)cc1.Cl |  |  |  |  |  |  |  |  |  |  | > 2 µg/mL | > 2 µg/mL |
| Cc1ccc(/C=C2\CN(C(=O)c3ccc(OCCN(C)C)cc3)C/C(=C\c3ccc(C)cc3)C2=O)cc1.Cl |  |  |  |  |  |  |  | > 2 µg/mL | > 2 µg/mL |  | > 2 µg/mL | > 2 µg/mL |
| O[C@@H](c1cc(C(F)(F)F)nc2c(C(F)(F)F)cccc12)[C@H]1CCCCN1 (relative stereo) [(S,R)-MEFLOQUINE] |  |  | 6.17 | 3.7 ×10⁻⁶ cm/s | > 60 min | 0.6 ×10⁻⁶ cm/s | > 60 min | > 2 µg/mL | > 2 µg/mL | 2 | 0.0167 µg/mL (≈ 0.0441 µM) | 0.0066 µg/mL (≈ 0.0174 µM) |
| CCN(CC)CCCC(C)Nc1ccnc2cc(Cl)ccc12.O=P(O)(O)O.O=P(O)(O)O (stereo not drawn) [CHLOROQUINE PHOSPHATE] |  |  |  |  |  |  |  | > 2 µg/mL | > 2 µg/mL |  |  |  |
| CCN(CC)CCCC(C)Nc1ccnc2cc(Cl)ccc12 (stereo not drawn) [CHLOROQUINE] |  |  |  | 14 ×10⁻⁶ cm/s | > 60 min | 13 ×10⁻⁶ cm/s | > 60 min |  |  |  |  |  |
